From PubChem BioAssay AID2060884 (Molecular Pharmacology Branch, DTP, NCI, 2025)

Tested on: NCI-H929 complex spheroids, viability % test/control
Experiment: Anticancer human tumor NCI-H929 cell line growth inhibition [RAS];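 also: compound exposure lasted seven days before viability was read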
Conditions: for IC50: curve of first compound; for viability, T/C: stronger effect = lower value
Description: RAS pathway inhibitors in Combinations in Complex Spheroids
A high-throughput screen of multi-cell type tumor spheroids was designed to identify active combinations of RAS pathway inhibitors and targeted small molecules. Complex spheroids include a stromal component modeled by human endothelial cells (HUVEC) and fibroblasts modeled by human mesenchymal stem cells (MSCs). The concentration ranges selected for each drug and investigational agent were based upon clinically achievable concentrations if the clinical Cmax of the agent was known.
Compounds. The drugs and investigational agents: abemaciclib (NSC768073), cobimetinib (NSC768068), divarasib (GDC6063, NSC841802), docetaxel (NSC628503), GDC-1971 (RLY-1971, NSC841576), gemcitabine (NSC613327), inavolisib (NSC800729), ipatasertib (NSC767898), KB-0742 (NSC834161), MRTX-1133 (NSC836407), osimertinib (NSC779217), RMC-4630 (NSC839698), RMC-6236 (NSC851965), RMC-6291 (NSC852671), Ro-3306 (NSC812927), sapanisertib (NSC764658), SN-38 (NSC673596), staurosporine (NSC755774), SY5609 (NSC837396), and tovorafenib (DAY101, NSC766906), were obtained from the National Cancer Institute (NCI) Developmental Therapeutics Program Chemical Repository. The FDA-approved anticancer drug set is available from the NCI Developmental Therapeutics Program. […] The stock solutions were prepared in dimethyl sulfoxide (DMSO, Sigma-Aldrich, St. Louis, MO, cat. D2650) at 800-fold the tested concentration and stored at -70 degrees C prior to their use. All drugs and investigational agents were tested over a range starting from a high concentration at or near the clinical Cmax and decreasing in half-log increments. If the clinical Cmax for an agent had not been determined, the highest concentration tested was 10 microM.
Cell Culture. All cells were maintained in an incubator at 37 degrees C and 5% CO2 with 95% humidity. The PDC lines were cultured according to standard operating procedures established by the NCI PDMR. All PDCs were thawed and cultured in Matrigel-coated flasks prepared with a working solution of 1X Ham's F-12 nutrient mix, without supplementation (Invitrogen, Waltham, MA, cat. 11765054), 100 U/mL penicillin-streptomycin (Invitrogen, cat. 15140122), and 2.5% Matrigel (Corning Inc., Corning, NY, cat. 354248) for the first three passages. The 362531-283-R-J2-PDC and 782815-120-R-J1-PDC lines were cultured in 6C/Colon 1B media, which includes advanced DMEM/F-12 (Thermo Fisher Scientific, cat. 12634028), 10 mM HEPES (Thermo Fisher Scientific, cat. 15630080), 1X GlutaMAX supplement (Thermo Fisher Scientific, cat. 35050061), 0.1 mg/mL primocin (InvivoGen, San Diego, CA, cat. ant-pm-2), 10% defined fetal bovine serum, heat inactivated (HyClone Laboratories Inc., Logan, UT, cat. SH30070.03HI), 50% L-WRN conditioned media (ATCC, cat. CRL-3276), 1.25 mM N-Acetyl-L-cysteine (Sigma-Aldrich, cat. A9165), 10 mM nicotinamide (Sigma-Aldrich, cat. N0636), 1X B-27 supplement (Thermo Fisher Scientific, cat. 17504044), 1X N-2 supplement (Thermo Fisher Scientific, cat. 17502048), 50 ng/mL human EGF (Thermo Fisher Scientific, cat. PHG0311), and 10 microM Y-27632 dihydrochloride (Tocris Bioscience, cat. 1254). The K12877-001-R-J1-PDC line was cultured in 6I media, which includes all 6C/Colon 1B media plus 10 ng/mL human FGF-10 (PeproTech, cat. 100-26), 1 ng/mL human FGF-2 (PeproTech, cat. 100-18B), 1 µM prostaglandin E2 (Tocris Bioscience, cat. 2296), […] hydrocortisone (Sigma-Aldrich, cat. H4001), and […] bovine insulin (Sigma-Aldrich, cat. I6634). The K86415-001-R-J1-PDC line was cultured in 6D media, which includes all 6C/Colon 1B media components minus the L-WRN conditioned media. The 485176-168-R4-J1-PDC was cultured in PANC media, which includes all 6C/Colon 1B media plus 100 ng/mL human FGF-10 (PeproTech, cat. 100-26), 500 nM SB-431542 (Selleckchem, cat. S1067), and 10 nM gastrin (Tocris Bioscience, cat. 3006). […]

## CC(Nc1ccc2c(c1)OCCn1cc(N3C(=O)OCC3C(F)F)nc1-2)C(N)=O (centres undefined) + CCn1c(-c2cccnc2C(C)OC)c2c3cc(ccc31)N1CCOC(CC(NC(=O)C(C(C)C)N(C)C(=O)C3(F)CCN(C(=O)C#CC(C)(C)N(C)C)CC3)C(=O)N3CCCC(N3)C(=O)OCC(C)(C)C2)C1
Second compound 0.000949 µM
  IC50: 6.45 µM
Second compound 0.003 µM
  IC50: 6.54 µM
Second compound 0.00949 µM
  IC50: 5.96 µM
Second compound 0.03 µM
  IC50: 5.96 µM
Second compound 0.0949 µM
  IC50: 5.44 µM
Second compound 0.3 µM
  IC50: 4.4 µM
Second compound 0.000949 µM, first compound 0.0316 µM
  viability, T/C: 103%
Second compound 0.000949 µM, first compound 0.1 µM
  viability, T/C: 94.3%
Second compound 0.000949 µM, first compound 0.316 µM
  viability, T/C: 96.2%
Second compound 0.000949 µM, first compound 1 µM
  viability, T/C: 87.2%
Second compound 0.000949 µM, first compound 3.16 µM
  viability, T/C: 83.5%
Second compound 0.000949 µM, first compound 10 µM
  viability, T/C: 30.4%
Second compound 0.003 µM, first compound 0.0316 µM
  viability, T/C: 99.5%
Second compound 0.003 µM, first compound 0.1 µM
  viability, T/C: 96.1%
Second compound 0.003 µM, first compound 0.316 µM
  viability, T/C: 94.5%
Second compound 0.003 µM, first compound 1 µM
  viability, T/C: 90.5%
Second compound 0.003 µM, first compound 3.16 µM
  viability, T/C: 79.8%
Second compound 0.003 µM, first compound 10 µM
  viability, T/C: 32.7%
Second compound 0.00949 µM, first compound 0.0316 µM
  viability, T/C: 98.7%
Second compound 0.00949 µM, first compound 0.1 µM
  viability, T/C: 97.1%
Second compound 0.00949 µM, first compound 0.316 µM
  viability, T/C: 96.5%
Second compound 0.00949 µM, first compound 1 µM
  viability, T/C: 92%
Second compound 0.00949 µM, first compound 3.16 µM
  viability, T/C: 85.3%
Second compound 0.00949 µM, first compound 10 µM
  viability, T/C: 21.6%
Second compound 0.03 µM, first compound 0.0316 µM
  viability, T/C: 94.1%
Second compound 0.03 µM, first compound 0.1 µM
  viability, T/C: 96.6%
Second compound 0.03 µM, first compound 0.316 µM
  viability, T/C: 96.5%
Second compound 0.03 µM, first compound 1 µM
  viability, T/C: 91.8%
Second compound 0.03 µM, first compound 3.16 µM
  viability, T/C: 83.1%
Second compound 0.03 µM, first compound 10 µM
  viability, T/C: 22.9%
Second compound 0.0949 µM, first compound 0.0316 µM
  viability, T/C: 96.9%
Second compound 0.0949 µM, first compound 0.1 µM
  viability, T/C: 98.1%
Second compound 0.0949 µM, first compound 0.316 µM
  viability, T/C: 94.5%
Second compound 0.0949 µM, first compound 1 µM
  viability, T/C: 91.1%
Second compound 0.0949 µM, first compound 3.16 µM
  viability, T/C: 80.2%
Second compound 0.0949 µM, first compound 10 µM
  viability, T/C: 17%
Second compound 0.3 µM, first compound 0.0316 µM
  viability, T/C: 101%
Second compound 0.3 µM, first compound 0.1 µM
  viability, T/C: 101%
Second compound 0.3 µM, first compound 0.316 µM
  viability, T/C: 97.2%
Second compound 0.3 µM, first compound 1 µM
  viability, T/C: 86%
Second compound 0.3 µM, first compound 3.16 µM
  viability, T/C: 65.6%
Second compound 0.3 µM, first compound 10 µM
  viability, T/C: 13.2%

## O=C(c1ccc(F)c(F)c1Nc1ccc(I)cc1F)N1CC(O)([C@@H]2CCCCN2)C1 + C=CC(=O)N1CCN(c2nc(OCC3CCCN3C)nc3c(F)c(-c4nc(N)cc(C)c4C(F)(F)F)c(Cl)cc23)C(C)C1
Second compound 0.00316 µM
  IC50: > 1 µM
Second compound 0.01 µM
  IC50: > 1 µM
Second compound 0.0316 µM
  IC50: > 1 µM
Second compound 0.1 µM
  IC50: > 1 µM
Second compound 0.316 µM
  IC50: > 1 µM
Second compound 1 µM
  IC50: > 1 µM
Second compound 0.00316 µM, first compound 0.00316 µM
  viability, T/C: 101%
Second compound 0.00316 µM, first compound 0.01 µM
  viability, T/C: 92.1%
Second compound 0.00316 µM, first compound 0.0316 µM
  viability, T/C: 85.7%
Second compound 0.00316 µM, first compound 0.1 µM
  viability, T/C: 88.7%
Second compound 0.00316 µM, first compound 0.316 µM
  viability, T/C: 112%
Second compound 0.00316 µM, first compound 1 µM
  viability, T/C: 55.4%
Second compound 0.01 µM, first compound 0.00316 µM
  viability, T/C: 102%
Second compound 0.01 µM, first compound 0.01 µM
  viability, T/C: 91.2%
Second compound 0.01 µM, first compound 0.0316 µM
  viability, T/C: 83.5%
Second compound 0.01 µM, first compound 0.1 µM
  viability, T/C: 94.2%
Second compound 0.01 µM, first compound 0.316 µM
  viability, T/C: 112%
Second compound 0.01 µM, first compound 1 µM
  viability, T/C: 58.3%
Second compound 0.0316 µM, first compound 0.00316 µM
  viability, T/C: 96.9%
Second compound 0.0316 µM, first compound 0.01 µM
  viability, T/C: 96.8%
Second compound 0.0316 µM, first compound 0.0316 µM
  viability, T/C: 88.6%
Second compound 0.0316 µM, first compound 0.1 µM
  viability, T/C: 95.2%
Second compound 0.0316 µM, first compound 0.316 µM
  viability, T/C: 112%
Second compound 0.0316 µM, first compound 1 µM
  viability, T/C: 57.4%
Second compound 0.1 µM, first compound 0.00316 µM
  viability, T/C: 99.2%
Second compound 0.1 µM, first compound 0.01 µM
  viability, T/C: 93.4%
Second compound 0.1 µM, first compound 0.0316 µM
  viability, T/C: 89.1%
Second compound 0.1 µM, first compound 0.1 µM
  viability, T/C: 93.3%
Second compound 0.1 µM, first compound 0.316 µM
  viability, T/C: 113%
Second compound 0.1 µM, first compound 1 µM
  viability, T/C: 56.7%
Second compound 0.316 µM, first compound 0.00316 µM
  viability, T/C: 97.8%
Second compound 0.316 µM, first compound 0.01 µM
  viability, T/C: 101%
Second compound 0.316 µM, first compound 0.0316 µM
  viability, T/C: 84.3%
Second compound 0.316 µM, first compound 0.1 µM
  viability, T/C: 92.7%
Second compound 0.316 µM, first compound 0.316 µM
  viability, T/C: 117%
Second compound 0.316 µM, first compound 1 µM
  viability, T/C: 54.4%
Second compound 1 µM, first compound 0.00316 µM
  viability, T/C: 106%
Second compound 1 µM, first compound 0.01 µM
  viability, T/C: 97.5%
Second compound 1 µM, first compound 0.0316 µM
  viability, T/C: 91.3%
Second compound 1 µM, first compound 0.1 µM
  viability, T/C: 104%
Second compound 1 µM, first compound 0.316 µM
  viability, T/C: 116%
Second compound 1 µM, first compound 1 µM
  viability, T/C: 54%
